Reference: patent US20220362771A1, “USE OF DROPLET SINGLE CELL EPIGENOME PROFILING FOR PATIENT STRATIFICATION” (HiFiBio SAS, priority 2018, published 2022)
Like-named read-outs stand apart in the source and are kept apart here.

Assays:
[1] = test system: HBCx-95 triple-negative breast tumor PDX; experiment: breast tumor PDX model of acquired resistance to Capecitabine; assay type: in vivo, mice
Protocol: (a) n=6 mice with HBCx-95 derivatives were treated with Capecitabine for 6 weeks. Graphs represent relative tumor volumes (RTV, mm3) with time. Mice with recurrent tumors were treated for a second round of Capecitabine when PDX reached a volume of over 200 mm3 (mice #35, #40 & #33). […] Samples studied in manuscript are indicated with a dashed rectangle. (b) Histograms of the distribution of scChIP-seq raw and unique sequencing reads per cell in untreated HBCx-95 and Capecitabine-resistant HBCx-95-CapaR PDX. (c) Scatter plot displaying the log 2 enrichments in cumulative single-cell versus bulk H3K27me3 ChIP-seq data, calculated based on the counts per million mapped reads in 50 kb genomic bins. Pearson correlation score and p-value are computed genome-wide. (d) Distribution of the log 2 enrichments in 50 kb genomic bins for cumulative single-cell and bulk H3K27me3 ChIP-seq data. Amplitude between maximum and minimum log 2 enrichments are indicated on the top right for each ChIP-seq method (either bulk or single-cell).
It was profiled the H3K27me3 landscape at single-cell resolution for both sensitive and resistant xenografts, HBCx-95 and HBCx-95-CapaR (FIG. 17b), and it was also performed scRNA-seq to evaluate transcriptional heterogeneity within the same cell suspension (FIG. 18a). Cumulative single-cell chromatin profiles match bulk ChIP-seq profiles (FIG. 17c-d, r=0.89 with p<10-15).

[2] = molecular target: MNase (Staphylococcus aureus, UniProt P00644); experiment: EGTA inactivation of MNase activity in droplets; assay type: biochemical; settings: fraction of oligonucleotide remaining measured by TapeStation, normalized to droplets without MNase
Protocol: FIG. 3 depicts the concentration of EGTA necessary to fully inactivates MNase activity in droplets. The fraction of oligonucleotide remaining after incubation was measured by TapeStation and normalized to the digestion negative control (i.e droplets without MNase). 26 mM final concentration of EGTA fully inactivated MNase in droplets.
At the end of the encapsulation, droplets are incubated off-chip for single-cell chromatin fragmentation. Cells are lysed in droplets, making their nuclear DNA accessible for MNase enzyme. The kinetic of the digestion is particularly important to yield preferentially mono-nucleosomes, which are retained in the droplet. The ideal incubation time is defined as the time necessary to get 100% of nuclear DNA fragmented into mono-nucleosomes. The digestion conditions including lysis buffer composition, MNase concentration and incubation time are precisely calibrated for each sample by performing a time-course study. The calibration is carried out as follows: 45 pl droplets containing cells, lysis buffer and MNase are produced, collected in a collection tube and placed at 37° C. for different incubation time. At each time point, a fraction of droplets is broken and MNase immediately inactivated by addition of EGTA (see FIG. 3). DNA fragments are then purified and analyzed by electrophoresis. […]

[3] = test system: HBCx-22 luminal ER+ breast PDX; settings: cited from earlier work

## CCCCCOC(=O)Nc1nc(=O)n([C@@H]2O[C@H](C)[C@@H](O)[C@H]2O)cc1F [Capecitabine]
[1]; mouse #40, recurrent tumor, second round of Capecitabine, PDX extracted at 1080 mm3 as HBCx-95-CapaR
  tumor response to Capecitabine (relative tumor volume): did not respond
[1]; xenograft derivatives from an individual patient (HBCx-95), before two cycles of treatment
  tumor response to Capecitabine: initially responsive

## O=C(O)CN(CCOCCOCCN(CC(=O)O)CC(=O)O)CC(=O)O [EGTA]
[2]
  final concentration of EGTA that fully inactivated MNase in droplets: 26 mM

## CC/C(=C(\c1ccccc1)c1ccc(OCCN(C)C)cc1)c1ccccc1 [Tamoxifen]
[3]; HBCx-22-TamR tumor derivative, previously characterized
  tumor response to Tamoxifen: acquired resistance
[3]; HBCx-22 PDX
  tumor response to Tamoxifen: responsive
